Literature values as cited in US20240382574A1, “METHODS AND COMPOSITIONS FOR ORALLY DOSING ANIMALS” (Animal Science Products, Inc., priority 2023, published 2024).

Tested on: piglets
Details: previous research

CCCCCCCCCCCCCC(=O)O [myristic acid, tetradecanoic acid (myristic acid)]
attraction of piglets: piglets are attracted to these molecules

3-methylindole (skatole)
attraction of piglets: piglets are attracted to these molecules
